# pIC50: −log10 of the molar value.
# Test system: H358 cells
# Assay: Cell activity experiment: activity test of H358 cells (MTT, 5 days)
# Format: cell-based
# Conditions: 5 days incubation, absorbance 492 nm
# Procedure, shortened: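 Viability was read by MTT: 4 h dye incubation, DMSO solubilisation, absorbance at 492 nm. This followed 5 days' treatment (37° C., 5% CO2) of H358 cells, pre-grown 24 h, with eight-point 3-fold dilutions up to 10000 nM final, 0.5% DMSO final, triplicate wells.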
smiles,measurement,setting,value
"C=C(F)C(=O)N1CCN(c2nc(OCC34CCCN3CCC4)nc3cc(-c4cccc5ccc(F)c(Cl)c45)ccc23)C[C@@H]1CC#N [Example 98, (S)-2-(4-(7-(8-chloro-7-fluoronaphthalen-1-yl)-2-((tetrahydro-1H-pyrrolizin-7a(5H)-yl)methoxy)quinazolin-4-yl)-1-(2-fluoroacryloyl)piperazin-2-yl)acetonitrile]",pIC50,"Homo sapiens, NCI-H358, 120 h",8.10
"C=CC(=O)N1CCN(c2nc(OCC34CCCN3CCC4)nc3c(F)c(-c4cncc5c4CCCC5)ncc23)C[C@@H]1CC#N [Example 37, (S)-2-(1-acryloyl-4-(8-fluoro-2-((tetrahydro-1H-pyrrolizin-7a(5H)-yl)methoxy)-7-(5,6,7,8-tetrahydroisoquinolin-4-yl)pyridino[4,3-d]pyrimidin-4-yl)piperazin-2-yl)acetonitrile]",pIC50,"Homo sapiens, NCI-H358, 120 h",7.82
C=CC(=O)N1CCN(c2nc(OC[C@@H]3CCCN3C)nc3cc(N4CCCc5cccc(Cl)c54)ccc23)C[C@@H]1CC#N [Example 618],pIC50,"Homo sapiens, NCI-H358, 120 h",6.70
"C=CC(=O)N1CCN(c2nc(OCC34CCCN3C[C@H](F)C4)nc3c(F)c(-c4cncc5cccc(Cl)c45)ccc23)C[C@@H]1CC#N (stereo partly drawn) [Example 164, 2-((2S)-1-acryloyl-4-(7-(5-chloroisoquinolin-4-yl)-8-fluoro-2-((((2R,7aS)-2-fluorotetrahydro-1H-pyrrolizin-7a(5H))-yl)methoxy)quinazolin-4-yl)piperazin-2-yl)acetonitrile]",pIC50,"Homo sapiens, NCI-H358, 120 h",8.82
"C=CC(=O)N1CC[C@H]2[C@H]1CN2c1nc(OC[C@@H]2CCCN2C)nc2c(F)c(-c3cccc4cccc(Cl)c34)ccc12 [Example 370, 1-((1R,5S)-6-(7-(8-chloronaphthalen-1-yl)-8-fluoro-2-(((S)-1-methylpyrrolidin-2-yl)methoxy)quinazolin-4-yl)-2,6-diazabicyclo[3.2.0]hept-2-yl)prop-2-en-1-one]",pIC50,"Homo sapiens, NCI-H358, 120 h",8.00
C=CC(=O)N1CCN(c2nc(OC[C@@]34CCCN3C[C@H](F)C4)nc3c(F)c(-c4cccc5cccc(Cl)c45)c(Cl)cc23)C[C@@H]1CC#N [Example 510],pIC50,"Homo sapiens, NCI-H358, 120 h",6.89
C=CC(=O)N1CCN(c2nc(OC[C@@H]3C[C@@H](F)CN3C)nc3c(F)c(-c4ccc(F)c5c4CCCC5)ncc23)C[C@@H]1CC#N [Example 19],pIC50,"Homo sapiens, NCI-H358, 120 h",7.46
C=C(F)C(=O)N1CCN(C2=C(C#N)C(OC[C@@H]3C[C@@H](F)CN3C)=NC3C=C(c4cccc5ccc(F)c(Cl)c45)C=CC23)C[C@@H]1CC#N (stereo partly drawn) [Example 626],pIC50,"Homo sapiens, NCI-H358, 120 h",5.82
C=CC(=O)N1CCN(c2nc(OC[C@@H]3C[C@@H](F)CN3C)nc3c(F)c(-c4cncc5c4CCCC5)ncc23)C[C@@H]1CC#N [Example 35],pIC50,"Homo sapiens, NCI-H358, 120 h",7.82
C=CC(=O)N1CCN(c2nc(OCC34CCCN3C[C@H](F)C4)nc3cc(-c4cccc5ccc(F)c(Cl)c45)ccc23)C[C@@H]1CC#N (stereo partly drawn) [Example 99],pIC50,"Homo sapiens, NCI-H358, 120 h",9.47
"C=CC(=O)N1CCN(c2nc(OC[C@@H]3CCCN3C)nc3c(F)c(-c4cccc5c4CCOC5)ncc23)C[C@@H]1CC#N [Example 50, 2-((S)-1-acryloyl-4-(8-fluoro-7-(isochroman-5-yl)-2-(((S)-1-methylpyrrolidin-2-yl)methoxy)pyridino[4,3-d]pyrimidin-4-yl)piperazin-2-yl)acetonitrile]",pIC50,"Homo sapiens, NCI-H358, 120 h",6.85
C=CC(=O)N1CCN(c2c(C#N)c(OCC34CCCN3CCC4)nc3cc(-c4cccc5ccc(F)c(Cl)c45)ccc23)C[C@@H]1CC#N [Example 620],pIC50,"Homo sapiens, NCI-H358, 120 h",6.86
"C=CC(=O)N1CC[C@@H]2[C@H]1CN2c1nc(OC[C@@H]2CCCN2C)nc2cc(-c3cccc4cccc(Cl)c34)ccc12 [Example 85, 1-((1R,5R)-6-(7-(8-chloronaphthalen-1-yl)-2-(((S)-1-methylpyrrolidin-2-yl)methoxy)quinazolin-4-yl)-2,6-diazabicyclo[3.2.0]hept-2-yl)prop-2-en-1-one]",pIC50,"Homo sapiens, NCI-H358, 120 h",8.22
C=C(F)C(=O)N1CCN(c2nc(OC[C@@]34CCCN3CC(F)C4)nc3cc(-c4cccc5cccc(Cl)c45)ccc23)C[C@@H]1CC#N (stereo partly drawn) [Example 84],pIC50,"Homo sapiens, NCI-H358, 120 h",8.00
C=CC(=O)N1CCN(c2nc(OC[C@@]34CCCN3C[C@H](F)C4)nc3c(OC4CC4)c(-c4c(C)ccc5[nH]ncc45)c(Cl)cc23)C[C@@H]1CC#N [Example 933],pIC50,"Homo sapiens, NCI-H358, 120 h",9.52
C=CC(=O)N1CCN(c2nc(Oc3cccc4c3CCN(C)C4)nc3cc(-c4cccc5c4CCCC5)ccc23)C[C@@H]1CC#N [Example 109],pIC50,"Homo sapiens, NCI-H358, 120 h",6.54
C=CC(=O)N1CCN(c2nc(OC[C@@H]3C[C@@H](F)CN3C)nc3cc(-c4cccc5ccc(F)c(Cl)c45)c(Cl)cc23)C[C@@H]1CC#N [Example 469],pIC50,"Homo sapiens, NCI-H358, 120 h",7.15
C=CC(=O)N1CCN(c2nc(OC[C@@]34CCCN3C[C@H](F)C4)nc3c(F)c(-c4cccc5c4CCCC5)ccc23)C[C@@H]1CC#N [Example 366],pIC50,"Homo sapiens, NCI-H358, 120 h",8.52
"C=CC(=O)N1CCN(c2nc(OC[C@@H]3CCCN3C)nc3c(F)c(-c4cccc5c4CC4CC54)ncc23)C[C@@H]1CC#N (single isomer, unassigned) [Example 874]",pIC50,,6.37
"C=C(F)C(=O)N1CCN(c2nc(OC[C@@]34CCCN3C[C@H](F)C4)nc3c(OC4CC4)c(-c4cccc5c4CC4CC54)c(Cl)cc23)C[C@@H]1CC#N (single isomer, unassigned) [Example 919]",pIC50,,5.77
C=CC(=O)N1CCN(c2nc(OCC34CCCN3CCC4)nc3cc(-c4cccc5c4CCCC5)c(Cl)cc23)C[C@@H]1CC#N [Example 470],pIC50,"Homo sapiens, NCI-H358, 120 h",7.30
"C=CC(=O)N1CCN(c2nc(OC[C@@H]3CCCN3C)nc3c(F)c(-c4cccc5c4CC4CC54)ccc23)C[C@@H]1CC#N (single isomer, unassigned) [Example 882]",pIC50,,6.26
C=CC(=O)N1CC[C@@H]2[C@H]1CN2c1nc(OC[C@@H]2C[C@@H](F)CN2C)nc2c(F)c(-c3ccc(F)c4c3CCCC4)ncc12 [Example 27],pIC50,"Homo sapiens, NCI-H358, 120 h",7.82
"C=CC(=O)N1CC[C@H]2[C@H]1CN2c1nc(OCC23CCCN2CCC3)nc2cc(-c3cccc4cccc(Cl)c34)c(Cl)cc12 [Example 471, 1-((1R,5S)-6-(6-chloro-7-(8-chloronaphthalen-1-yl)-2-((tetrahydro-1H-pyrrolizin-7a(5H)-yl)methoxy)quinazolin-4-yl)-2,6-diazabicyclo[3.2.0]hept-2-yl)prop-2-en-1-one]",pIC50,"Homo sapiens, NCI-H358, 120 h",7.35
"C=CC(=O)N1CCN(c2nc(OC[C@@]34CCCN3C[C@H](F)C4)nc3c(F)c(-c4cccc5c4CCCC5)ncc23)C[C@@H]1CC#N [Example 7, 2-((S)-1-acryloyl-4-(8-fluoro-2-(((2R,7aS)-2-fluorotetrahydro-1H-pyrrolizin-7a(5H)-yl)methoxy)-7-(5,6,7,8-tetrahydronaphthalen-1-yl)pyridino[4,3-d]pyrimidin-4-yl)piperazin-2-yl)acetonitrile]",pIC50,"Homo sapiens, NCI-H358, 120 h",10.15
C=C(F)C(=O)N1CCN(c2nc(OCC34CCCN3C[C@H](F)C4)nc3cc(-c4cccc5ccc(F)c(Cl)c45)ccc23)C[C@@H]1CC#N (stereo partly drawn) [Example 100],pIC50,"Homo sapiens, NCI-H358, 120 h",8.22
C=CC(=O)N1CCN(c2nc(OC[C@@H]3C[C@@H](F)CN3C)nc3c(F)c(-c4cccc5c4CCCC5)ccc23)C[C@@H]1CC#N [Example 360],pIC50,"Homo sapiens, NCI-H358, 120 h",8.00
C=C(F)C(=O)N1CCN(C2=C(C#N)C(OC[C@@H]3CCCN3C)=NC3C=C(c4cccc5ccc(F)c(Cl)c45)C=CC23)C[C@@H]1CC#N (stereo partly drawn) [Example 624],pIC50,"Homo sapiens, NCI-H358, 120 h",6.10
C=CC(=O)N1CCN(c2nc(OC[C@@H]3CCCN3C)nc3c(F)c(-c4cccc5c4CCCC5)c(F)cc23)C[C@@H]1CC#N [Example 429],pIC50,"Homo sapiens, NCI-H358, 120 h",7.82
"C=C(F)C(=O)N1CCN(c2nc(OCC34CCCN3CCC4)nc3nc(-c4cccc5cccc(Cl)c45)ccc23)C[C@@H]1CC#N [Example 259, (S)-2-(4-(7-(8-chloronaphthalen-1-yl)-2-((tetrahydro-1H-pyrrolizin-7a(5H)-yl)methoxy)pyridino[2,3-d]pyrimidin-4-yl)-1-(2-fluoroacryloyl)piperazin-2-yl)acetonitrile]",pIC50,"Homo sapiens, NCI-H358, 120 h",7.51
C=CC(=O)N1CCN(c2nc(OC[C@@]34CCCN3C[C@H](F)C4)nc3c(F)c(-c4cccc5c4C4CC4C5)ncc23)C[C@@H]1CC#N (stereo partly drawn) [Example 67],pIC50,"Homo sapiens, NCI-H358, 120 h",10.15
C=C(F)C(=O)N1CCN(c2nc(OC[C@@H]3CCCN3C)nc3c(OC4CC4)c(-c4cccc5ccc(F)c(Cl)c45)c(Cl)cc23)C[C@@H]1CC#N [Example 924],pIC50,"Homo sapiens, NCI-H358, 120 h",7.31
C=C(F)C(=O)N1CCN(c2nc(OC[C@@H]3CCCN3C)nc3c(F)c(-c4cncc5cccc(Cl)c45)ccc23)C[C@@H]1CC#N [Example 159],pIC50,"Homo sapiens, NCI-H358, 120 h",7.74
C=CC(=O)N1CCN(c2nc(OC[C@@H]3C[C@@H](F)CN3C)nc3c(F)c(-c4cccc5c4CCCC5)c(F)cc23)C[C@@H]1CC#N [Example 432],pIC50,"Homo sapiens, NCI-H358, 120 h",8.62
C=CC(=O)N1CCC2[C@H]1CN2c1nc(OC[C@@H]2CCCN2C)nc2c(F)c(-c3cccc4ccc(F)c(Cl)c34)ccc12 (stereo partly drawn) [Example 371],pIC50,"Homo sapiens, NCI-H358, 120 h",8.22
C=CC(=O)N1CCN(C2=C(C#N)C(OC[C@@]34CCCN3C[C@H](F)C4)=NC3C=C(c4cccc5ccc(F)c(Cl)c45)C=CC23)C[C@@H]1CC#N (stereo partly drawn) [Example 628],pIC50,"Homo sapiens, NCI-H358, 120 h",7.22
"C=CC(=O)N1CCN(c2nc(OC[C@@H]3CCCN3C)nc3c(F)c(-c4ccc(F)c5c4SCCC5)ncc23)C[C@@H]1CC#N [Example 54, 2-((S)-1-acryloyl-4-(8-fluoro-7-(5-fluorothiochroman-8-yl)-2-(((S)-1-methylpyrrolidin-2-yl)methoxy)pyridino[4,3-d]pyrimidin-4-yl)piperazin-2-yl)acetonitrile]",pIC50,"Homo sapiens, NCI-H358, 120 h",7.15
C=C(F)C(=O)N1CCN(c2nc(OCC34CCCN3C[C@H](F)C4)nc3cc(-c4cncc5cccc(Cl)c45)ccc23)C[C@@H]1CC#N (stereo partly drawn) [Example 133],pIC50,"Homo sapiens, NCI-H358, 120 h",8.10
"C=C(F)C(=O)N1CCN(c2nc(OC[C@@H]3CCCN3C)nc3c(F)c(-c4cccc5c4C4CC4C5)ncc23)C[C@@H]1CC#N (stereo partly drawn) [Example 55, 2-((2S)-4-(8-fluoro-2-(((S)-1-methylpyrrolidin-2-yl)methoxy)-7-(1,1a,6,6a-tetrahydrocyclopropa[a]inden-2-yl)pyridino[4,3-d]pyrimidin-4-yl)-1-(2-fluoroacryloyl)piperazin-2-yl)acetonitrile]",pIC50,"Homo sapiens, NCI-H358, 120 h",6.80
